Columns and labels:
[1] = target: PDE10A enzyme (Homo sapiens (Human), UniProt Q9Y233); assay: PDE10A inhibition assay (3H-cAMP, SPA beads); format: biochemical; settings: 10 nM 3H-cAMP, 1 hour incubation; read-out: PDE10 IC50
Description: PDE10A can be expressed as full-length proteins or as truncated proteins, as long as they express the catalytic domain, PDE10A can be prepared in different cell types, for example insect cells or E. coli. […] Expression in coil is performed according to standard protocols. Briefly, the expression plasmids are transformed into the BL21(DE3) E. coli strain, and 50 mL cultures inoculated with the cells allowed to grow to an OD600 of 0.4-0.6 before protein expression is induced with 0.5 mM IPTG. Following induction, the cells are incubated overnight at room temperature, after which the cells are collected by centrifugation. Cells expressing PDE10A are resuspended in 12 mL (50 mM TRIS-HCl-pH8.0, 1 mM MgCl2 and protease inhibitors). The cells are lysed by sonication, and after all cells are lysed, TritonX100 is added according to Novagen protocols.
Reactions are initiated by addition of the cyclic nucleotide substrate, and reactions are allowed to proceed for one hr at room temperature before being terminated through mixing with 15 uL […] yttrium silicate SPA beads (Amersham).
Following a 1 hour incubation the reactions were terminated by addition of 15 uL 8 mg/mL yttrium silicate SPA beads (Amersham). […] were calculated by non linear regression using XLfit (IDBS).

[2] = system: PCP induced hyperactivity in mice; assay: Phencyclidine (PCP) induced hyperactivity; format: in vivo, mice (NMRI); settings: Mus musculus
Description: Male mice (NMRI, Charles River) weighing 20-25 g are used. Eight mice are used in each group receiving the test compound (5 mg/kg) plus PCP (2.3 mg/kg) including the parallel control groups receiving the vehicle of the test compound plus PCP or vehicle injections only. The injection volume is 10 ml/kg. The experiment is made in normal light conditions in an undisturbed room. The test substance is injected per oss 60 min before injection of PCP, which is administered subcutaneous.
Immediately after injection of PCP the mice are placed individually in special designed test cage (20 cm×32 cm). The activity is measured by 5×8 infrared light sources and photocells spaced by 4 cm. The light beams cross the cage 1.8 cm above the bottom of the cage. […]
Motility is recorded in 5 min intervals for a period of 1 hour. The drug effect is calculated on the total counts during the 1 hour behavioral test period in the following manner:
The mean motility induced by vehicle treatment in the absence of PCP is used as baseline. The 100 percent effect of PCP is accordingly calculated to be total motility counts minus baseline. The response in groups receiving test compound is thus determined by the total motility counts minus baseline, expressed in percent of the similar result recorded in the parallel PCP control group. […]

[3] = system: catalepsy in rats; settings: cited from earlier work
[4] = system: amphetamine induced hyperactivity; settings: rats; cited from earlier work
[5] = system: hyperactivity in rats induced by PCP; settings: cited from earlier work

Chain of PDE10A enzyme (Q9Y233 716-1055): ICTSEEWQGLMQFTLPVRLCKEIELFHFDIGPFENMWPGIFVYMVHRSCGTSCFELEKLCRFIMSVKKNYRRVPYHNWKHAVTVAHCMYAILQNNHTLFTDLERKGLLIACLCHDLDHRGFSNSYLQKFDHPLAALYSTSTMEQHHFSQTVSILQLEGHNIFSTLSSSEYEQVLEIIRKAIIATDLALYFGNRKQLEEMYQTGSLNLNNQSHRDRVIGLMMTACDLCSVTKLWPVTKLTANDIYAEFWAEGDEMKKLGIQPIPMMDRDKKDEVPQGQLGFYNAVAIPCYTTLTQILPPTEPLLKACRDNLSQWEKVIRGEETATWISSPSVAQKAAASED

Structure (SMILES): Cc1ncc(C)n2nc(CCc3cn4c(n3)-c3ccccc3CC4)nc12 [2-[2-(5,8-Dimethyl-[1,2,4]triazolo[1,5-a]pyrazin-2-yl)-ethyl]-5,6-dihydro-imidazo[2,1-a]isoquinoline]
- IC50 [1]: 0.81 nM

Structure (SMILES): Cc1ncc(C)n2nc(CCc3cn4c(n3)-c3ccccc3C4)nc12 [2-[-2-(5,8-Dimethyl-[1,2,4]triazolo[1,5-a]pyrazin-2-yl)-ethyl]-5H-imidazo[2,1-a]isoindole]
- inhibition at 5 mg/kg ([2]; at 5 mg/kg per os, PCP 2.3 mg/kg s.c.): 100%
- ED50 ([2]; per os 60 min before PCP 2.3 mg/kg s.c., read-out: ED50, inhibition of PCP induced hyperactivity): 0.2 mg/kg
- IC50 [1]: 0.4 nM

Structure (SMILES): COc1cccc2c1-c1nc(CCc3nc4c(C)ncc(C)n4n3)cn1C2 [2-[2-(5,8-Dimethyl-[1,2,4]triazolo[1,5-a]pyrazin-2-yl)-ethyl]-9-methoxy-5H-imidazo[2,1-a]isoindole]
- IC50 [1]: 0.44 nM

Structure (SMILES): Cc1ncc(C)n2nc(CCc3cn4c(n3)-c3ccccc3C4C(C)(C)O)nc12 (centres unmarked) [2-{2-[2-(5,8-Dimethyl-[1,2,4]triazolo[1,5-a]pyrazin-2-yl)-ethyl]-5H-imidazo[2,1-a]isoindol-5-yl}-propan-2-ol]
- IC50 [1]: 21 nM

Structure (SMILES): Cc1ccc(C)n2nc(CCc3cn4c(n3)-c3ccccc3C4)nc12 [2-[2-(5,8-Dimethyl-[1,2,4]triazolo[1,5-a]pyridin-2-yl)-ethyl]-5H-imidazo[2,1-a]isoindole]
- IC50 [1]: 0.69 nM

Structure (SMILES): Cc1cccc2nc(CCc3cn4c(n3)-c3ccccc3C4)nn12 [2-[2-(5-Methyl-[1,2,4]triazolo[1,5-a]pyridin-2-yl)-ethyl]-5H-imidazo[2,1-a]isoindole]
- IC50 [1]: 6.1 nM

Structure (SMILES): Cc1c[n+]([O-])c(C)c2nc(CCc3cn4c(n3)-c3ccccc3C4)nn12 [2-[-2-(5,8-Dimethyl-7-oxy-[1,2,4]triazolo[1,5-a]pyrazin-2-yl)-ethyl]-5H-imidazo[2,1-a]isoindole]
- IC50 [1]: 2.4 nM

Structure (SMILES): COc1ccc2c(c1)Cn1cc(CCc3nc4c(C)ncc(C)n4n3)nc1-2 [2-[2-(5,8-Dimethyl-[1,2,4]triazolo[1,5-a]pyrazin-2-yl)-ethyl]-7-methoxy-5H-imidazo[2,1-a]isoindole]
- IC50 [1]: 0.29 nM

Structure (SMILES): COc1ccc2c(c1)-c1nc(CCc3nc4c(C)ncc(C)n4n3)cn1C2 [2-[2-(5,8-Dimethyl-[1,2,4]triazolo[1,5-a]pyrazin-2-yl)-ethyl]-8-methoxy-5H-imidazo[2,1-a]isoindole]
- IC50 [1]: 6.9 nM

Structure (SMILES): Cc1ncc(C)n2nc(CCc3cn4c(n3)-c3cccnc3C4)nc12 [2-[2-(5,8-Dimethyl-[1,2,4]triazolo[1,5-a]pyrazin-2-yl)-ethyl]-5H-imidazo[1′,2′:1,5]pyrrolo[3,4-b]pyridine]
- IC50 [1]: 3.8 nM

Structure (SMILES): Cc1ncc(C)n2nc(CCc3cn4c(n3)-c3cccc(F)c3C4)nc12 [2-[2-(5,8-Dimethyl-[1,2,4]triazolo[1,5-a]pyrazin-2-yl)-ethyl]-6-fluoro-5H-imidazo[2,1-a]isoindole]
- IC50 [1]: 1.2 nM

Structure (SMILES): Cc1ncc(C)n2nc(CCc3cn4c(n3)-c3cc(F)ccc3C4)nc12 [2-[-2-(5,8-Dimethyl-[1,2,4]triazolo[1,5-a]pyrazin-2-yl)-ethyl]-8-fluoro-5H-imidazo[2,1-a]isoindole]
- IC50 [1]: 3.1 nM

Structure (SMILES): Cc1cnc(CO)c2nc(CCc3cn4c(n3)-c3ccccc3C4)nn12 [{2-[2-(5H-Imidazo[2,1-a]isoindol-2-yl)-ethyl]-5-methyl-[1,2,4]triazolo[1,5-a]pyrazin-8-yl}-methanol]
- IC50 [1]: 6.9 nM

Structure (SMILES): Cc1ncc(C)n2nc(CCc3cn4c(n3)-c3ncccc3C4)nc12 [2-[2-(5,8-Dimethyl-[1,2,4]triazolo[1,5-a]pyrazin-2-yl)-ethyl]-5H-imidazo[1′,2′:1,2]pyrrolo[3,4-b]pyridine]
- IC50 [1]: 46 nM

Structure (SMILES): COc1ccc(Cc2nccc3cc(OC)c(OC)cc23)cc1OC [Papaverine, papaverine]
- Catalepsy on its own ([3]; alone): did not cause catalepsy on its own
- Effect on the cataleptic effect of the D2 receptor antagonist haloperidol ([3]; together with haloperidol): potentiated the cataleptic effect
- Reduction of amphetamine induced hyperactivity [4]: insignificant
- Hyperactivity induced by PCP [5]: reduced hyperactivity

Structure (SMILES): Cc1ncc(C)n2nc(CCc3cn4c(n3)-c3c(F)cccc3C4)nc12 [2-[2-(5,8-Dimethyl-[1,2,4]triazolo[1,5-a]pyrazin-2-yl)-ethyl]-9-fluoro-5H-imidazo[2,1-a]isoindole]
- IC50 [1]: 0.79 nM

Structure (SMILES): COc1cccc2c1Cn1cc(CCc3nc4c(C)ncc(C)n4n3)nc1-2 [2-[2-(5,8-Dimethyl-[1,2,4]triazolo[1,5-a]pyrazin-2-yl)-ethyl]-6-methoxy-5H-imidazo[2,1-a]isoindole]
- IC50 [1]: 0.44 nM

Structure (SMILES): Cc1ncc(C)n2nc(C=Cc3cn4c(n3)-c3ccccc3C4)nc12 (racemic) [2-[-2-(5,8-Dimethyl-[1,2,4]triazolo[1,5-a]pyrazin-2-yl)-vinyl]-5H-imidazo[2,1-a]isoindole]
- IC50 [1]: 4.4 nM

Structure (SMILES): Cc1ncc(C)n2nc(CCc3cn4c(n3)-c3ccc(F)cc3C4)nc12 [2-[-2-(5,8-Dimethyl-[1,2,4]triazolo[1,5-a]pyrazin-2-yl)-ethyl]-7-fluoro-5H-imidazo[2,1-a]isoindole]
- IC50 [1]: 0.18 nM

Structure (SMILES): Cc1cc(C)n2nc(SCc3cn4c(n3)-c3ccccc3C4)nc2n1 [2-[(5,7-dimethyl-[1,2,4]triazolo[1,5-a]pyrimidin-2-yl)sulfanylmethyl]-5H-imidazo[2,1-a]isoindole]
- IC50 [1]: 260 nM

Structure (SMILES): [2H]C([2H])([2H])c1ncc(C([2H])([2H])[2H])n2nc(CCc3cn4c(n3)-c3ccccc3C4([2H])[2H])nc12 [2-[2-(5,8-Bis(trideuteromethyl-[1,2,4]triazolo[1,5-a]pyrazin-2-yl)-ethyl]-5,5-dideutero-5H-imidazo[2,1-a]isoindole]
- IC50 [1]: 0.4 nM

From patent US8796304B2, “Tricyclic imidazole compounds as PDE10 inhibitors” (H. Lundbeck A/S, priority 2010, dated 2014)
